In ChEMBL document CHEMBL3044883, “Synthesis, spectral, theoretical, and antimicrobial screening of some heterocyclic oximes” (2011):
Values after ≈ are worked out from the molar mass of the structure shown.

Tests used:
Format in all cases: functional
Rhizopus = test: Antifungal activity against Rhizopus after 72 to 96 hr by two-fold serial dilution method
Aspergillus flavus = test: Antifungal activity against Aspergillus flavus after 72 to 96 hr by two-foldserial dilution method
Aspergillus niger = test: Antifungal activity against Aspergillus niger after 72 to 96 hr by two-foldserial dilution method
Klebsiella pneumoniae = test: Antibacterial activity against Klebsiella pneumoniae after 24 hr by two fold serial dilution method
Staphylococcus aureus = test: Antibacterial activity against Staphylococcus aureus after 24 hr by two fold serial dilution method
Pseudomonas aeruginosa = test: Antibacterial activity against Pseudomonas aeruginosa after 24 hr by two-fold serial dilution method
Escherichia coli = test: Antibacterial activity against Escherichia coli after 24 hr by two-fold serial dilution method

CC1/C(=N\O)CC(c2ccco2)N(C=O)C1c1ccco1 (centres undefined)
MIC (Rhizopus): 50 µg/mL (≈ 173 µM)
MIC (Aspergillus flavus): 50 µg/mL (≈ 173 µM)
MIC (Aspergillus niger): 25 µg/mL (≈ 86.7 µM)
MIC (Klebsiella pneumoniae): 100 µg/mL (≈ 347 µM)
MIC (Staphylococcus aureus): 100 µg/mL (≈ 347 µM)
MIC (Pseudomonas aeruginosa): 100 µg/mL (≈ 347 µM)
MIC (Escherichia coli): 50 µg/mL (≈ 173 µM)

CCC1/C(=N\O)CC(c2ccco2)N(C=O)C1c1ccco1 (centres undefined)
MIC (Rhizopus): 25 µg/mL (≈ 82.7 µM)
MIC (Aspergillus flavus): 50 µg/mL (≈ 165 µM)
MIC (Aspergillus niger): 25 µg/mL (≈ 82.7 µM)
MIC (Klebsiella pneumoniae): 50 µg/mL (≈ 165 µM)
MIC (Staphylococcus aureus): 100 µg/mL (≈ 331 µM)
MIC (Pseudomonas aeruginosa): 100 µg/mL (≈ 331 µM)
MIC (Escherichia coli): 50 µg/mL (≈ 165 µM)

CC(C)C1/C(=N\O)CC(c2ccco2)N(C=O)C1c1ccco1 (centres undefined)
MIC (Rhizopus): 50 µg/mL (≈ 158 µM)
MIC (Aspergillus flavus): 12.5 µg/mL (≈ 39.5 µM)
MIC (Aspergillus niger): 12.5 µg/mL (≈ 39.5 µM)
MIC (Klebsiella pneumoniae): 25 µg/mL (≈ 79 µM)
MIC (Staphylococcus aureus): 50 µg/mL (≈ 158 µM)
MIC (Pseudomonas aeruginosa): 50 µg/mL (≈ 158 µM)
MIC (Escherichia coli): 25 µg/mL (≈ 79 µM)

O=CN1C(c2ccco2)C/C(=N/O)C(Cc2ccccc2)C1c1ccco1 (centres undefined)
MIC (Rhizopus): 50 µg/mL (≈ 137 µM)
MIC (Aspergillus flavus): 25 µg/mL (≈ 68.6 µM)
MIC (Aspergillus niger): 25 µg/mL (≈ 68.6 µM)
MIC (Klebsiella pneumoniae): 25 µg/mL (≈ 68.6 µM)
MIC (Staphylococcus aureus): 25 µg/mL (≈ 68.6 µM)
MIC (Pseudomonas aeruginosa): 25 µg/mL (≈ 68.6 µM)
MIC (Escherichia coli): 25 µg/mL (≈ 68.6 µM)

C[C@@H]1[C@H](O)[C@@H](C)/C=C/C=C/C=C/C=C/C=C/C=C/C=C/[C@H](O[C@@H]2O[C@H](C)[C@@H](O)[C@H](N)[C@@H]2O)C[C@@H]2O[C@](O)(C[C@@H](O)C[C@@H](O)[C@H](O)CC[C@@H](O)C[C@@H](O)CC(=O)O[C@H]1C)C[C@H](O)[C@H]2C(=O)O [AMPHOTERICIN B]
MIC (Rhizopus): 50 µg/mL (≈ 54.1 µM)
MIC (Aspergillus flavus): 25 µg/mL (≈ 27.1 µM)
MIC (Aspergillus niger): 50 µg/mL (≈ 54.1 µM)

O=C(O)c1cn(C2CC2)c2cc(N3CCNCC3)c(F)cc2c1=O [CIPROFLOXACIN]
MIC (Staphylococcus aureus): 50 µg/mL (≈ 151 µM)
MIC (Pseudomonas aeruginosa): 50 µg/mL (≈ 151 µM)
MIC (Escherichia coli): 25 µg/mL (≈ 75.4 µM)
